Measured values published in patent US9078899B2, “Pyrazolyl-based carboxamides II” (Grünenthal GmbH, priority 2013, dated 2015).

Target: T1, CRAC channel (Homo sapiens, UniProt Q96D31)
T1 construct: host or cells: HEK293
Assay: HEK Calcium Influx Assay (FLIPR)
Format: cell-based
Settings: 10 μM; endogenous SOC in HEK293 cells, thapsigargin store depletion, Ca2+ signal 9.5-10 min post-administration; read-out: % inhib.[@ 10 μM] FLIPR
Experimental: The effect of compounds of the invention on intracellular [Ca^2+] was tested in the HEK293 cell line (ECACC).
HEK293 cells were cultured in DMEM/F12/Glutamax (Gibco) containing 10% FCS (Gibco), and maintained at 37° C., 5% CO2. Cell were split twice a week [3*10^6 (Mon-Thu) and 1*10^6 (Thu-Mon) cells/50 ml medium in T-175 ZK culture flasks, respectively]. Twenty four hours pre-experiment, cells were seeded on 96 well plates (Poly-D-Lysine 96well Black/Clear Plate, BD Biocoat REF 356640) at a density of 40,000 cells/well in DMEM/F12 (Gibco) containing 10% FCS (Gibco), and maintained at 37° C., 5% CO2.
Prior to store-depletion, cell culture medium was removed and cells were loaded with the a Calcium-sensitive fluorescent dye comprised within the Calcium-4-assay kit (Molecular Devices) in nominally Ca^2+-free HBS buffer (140 mM NaCl, 4 mM KCl, 0.2 mM MgCl2, 11 mM D-glucose, and 10 mM HEPES, pH 7.4) according to manufacturer's instruction for 60 min at 37° C., 5% CO2.
Passive depletion of intracellular Ca^2+-stores was then triggered by employing the SERCA inhibitor thapsigargin (2 μM final) for 10 min in the dark (RT). To prevent immediate Ca^2+-entry via the activated Store-operated channels (SOCs), cells were maintained in Ca^2+-free HBS buffer comprising 100 μM EGTA during store-depletion.
Intracellular changes in [Ca^2+] were subsequently monitored with the FLIPR device (Molecular Devices). In brief, baseline imaging post-store depletion was allowed for 1 min before adjusting the extracellular buffer to 3 mM CaCl2. Increases in intracellular [Ca^2+] due to pre-activated SOC channels were monitored for 15 min until intracellular Ca^2+ levels had declined into a steady-state. Finally, compounds were administered and Ca^2+ signals were recorded for additional 10 min.
Inhibition of endogenous SOC in HEK293 cells was quantified employing the average Ca^2+ signal measured from 9.5-10 min post-administration. Zero percent inhibition (MAX) was defined as the Ca^2+ signal recorded from wells to which DMSO-only had been added instead of compound. Hundred percent inhibition (MIN) was defined as the signal obtained from wells in which cells haven't been treated with TG prior to Ca^2+ addition and to which DMSO-only had been added instead of compound. For routine IC50 determinations of compounds, 8 concentrations of a serial dilution (1:3.16) were tested, starting off from 10 μM. Reliable IC50's could consequently be determined only, if they were at least sub 2.5-3 μM.

T1 sequence (Q96D31 whole entry): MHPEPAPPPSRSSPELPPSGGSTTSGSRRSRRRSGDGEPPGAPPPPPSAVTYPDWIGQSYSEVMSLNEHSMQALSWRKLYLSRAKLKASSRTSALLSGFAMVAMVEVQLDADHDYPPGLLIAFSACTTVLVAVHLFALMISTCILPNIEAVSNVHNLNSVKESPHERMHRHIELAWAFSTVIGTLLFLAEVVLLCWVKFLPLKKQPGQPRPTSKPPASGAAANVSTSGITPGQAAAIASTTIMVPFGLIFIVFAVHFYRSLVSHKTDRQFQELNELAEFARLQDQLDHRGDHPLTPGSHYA

| SMILES | inhibition at 10 µM |
| --- | --- |
| Cc1ccncc1-c1cc(C(=O)Nc2c(C)cncc2F)nn1C [Example 65, N-(3-Fluoro-5-methyl-pyridin-4-yl)-1-methyl-5-(4-methyl-pyridin-3-yl)-1H-pyrazole-3-carboxylic acid amide] | > 70% |
| Cc1cnccc1NC(=O)c1cc(-c2cc(Cl)ccc2C)n(C)n1 [Example 28, 5-(5-Chloro-2-methyl-phenyl)-1-methyl-N-(3-methyl-pyridin-4-yl)-1H-pyrazole-3-carboxylic acid amide] | 50 to 70% |
| Cc1ccncc1-c1cc(C(=O)Nc2ccccc2C(F)(F)F)nn1C [Example 64, 1-Methyl-5-(4-methyl-pyridin-3-yl)-N-[2-(trifluoromethyl)-phenyl]-1H-pyrazole-3-carboxylic acid amide] | > 70% |
| COc1ccc(OC)c(-c2c(N)c(C(=O)Nc3ccncc3F)nn2C)c1 [Example 48, 4-Amino-5-(2,5-dimethoxyphenyl)-N-(3-fluoro-pyridin-4-yl)-1-methyl-1H-pyrazole-3-carboxylic acid amide] | > 70% |
| COc1ccc(OC)c(-c2cc(C(=O)Nc3ccc(S(C)(=O)=O)cc3F)nn2C)c1 [Example 13, 5-(2,5-Dimethoxyphenyl)-N-(2-fluoro-4-methylsulfonyl-phenyl)-1-methyl-1H-pyrazole-3-carboxylic acid amide] | 50 to 70% |
| Cn1nc(C(=O)Nc2ccccc2F)cc1-c1c(F)cccc1C(F)(F)F [Example 61, N-(2-Fluorophenyl)-5-[2-fluoro-6-(trifluoromethyl)-phenyl]-1-methyl-1H-pyrazole-3-carboxylic acid amide] | > 70% |
| Cn1nc(C(=O)Nc2ccccc2C(F)(F)F)cc1-c1c(F)cccc1C(F)(F)F [Example 60, 5-[2-Fluoro-6-(trifluoromethyl)-phenyl]-1-methyl-N-[2-(trifluoromethyl)-phenyl]-1H-pyrazole-3-carboxylic acid amide] | > 70% |
| Cc1ccc(C(F)(F)F)cc1-c1cc(C(=O)Nc2ccncc2F)nn1C [Example 29, N-(3-Fluoro-pyridin-4-yl)-1-methyl-5-[2-methyl-5-(trifluoromethyl)-phenyl]-1H-pyrazole-3-carboxylic acid amide] | 50 to 70% |
| Cn1nc(C(=O)Nc2c(F)cccc2F)cc1-c1c(F)cccc1F [Example 50, N,5-Bis(2,6-difluoro-phenyl)-1-methyl-1H-pyrazole-3-carboxylic acid amide] | 50 to 70% |
| Cn1nc(C(=O)Nc2ccccc2OC(F)(F)F)cc1-c1c(F)cccc1C(F)(F)F [Example 54, 5-[2-Fluoro-6-(trifluoromethyl)-phenyl]-1-methyl-N-[2-(trifluoromethyloxy)-phenyl]-1H-pyrazole-3-carboxylic acid amide] | 50 to 70% |
| COc1ccc(-c2cc(C(=O)Nc3ccncc3F)nn2C)c(C)c1 [Example 24, N-(3-Fluoro-pyridin-4-yl)-5-(4-methoxy-2-methyl-phenyl)-1-methyl-1H-pyrazole-3-carboxylic acid amide] | > 70% |
| Cn1nc(C(=O)Nc2ccncc2F)cc1-c1ccc(OC(F)(F)F)cc1Cl [Example 11, 5-[2-Chloro-4-(trifluoromethyloxy)-phenyl]-N-(3-fluoro-pyridin-4-yl)-1-methyl-1H-pyrazole-3-carboxylic acid amide] | 50 to 70% |
| COc1ccc(OC)c(-c2cc(C(=O)Nc3c(F)cccc3F)n[nH]2)c1 [Example 41, N-(2,6-Difluoro-phenyl)-5-(2,5-dimethoxyphenyl)-1H-pyrazole-3-carboxylic acid amide] | > 70% |
| COc1cc(F)c(NC(=O)c2cc(-c3c(F)cccc3C(F)(F)F)n(C)n2)c(F)c1 [Example 58, N-(2,6-Difluoro-4-methoxy-phenyl)-5-[2-fluoro-6-(trifluoromethyl)-phenyl]-1-methyl-1H-pyrazole-3-carboxylic acid amide] | 50 to 70% |
| Cn1nc(C(=O)Nc2c(F)cccc2F)cc1-c1cc(C(F)(F)F)ccc1F [Example 6, N-(2,6-Difluoro-phenyl)-5-[2-fluoro-5-(trifluoromethyl)-phenyl]-1-methyl-1H-pyrazole-3-carboxylic acid amide] | > 70% |
| Cn1nc(C(=O)Nc2ccncc2F)cc1-c1c(F)cccc1C(F)(F)F [Example 62, N-(3-Fluoro-pyridin-4-yl)-5-[2-fluoro-6-(trifluoromethyl)-phenyl]-1-methyl-1H-pyrazole-3-carboxylic acid amide] | > 70% |
| Cn1nc(C(=O)Nc2ccccc2C#N)cc1-c1c(F)cccc1C(F)(F)F [Example 56, N-(2-Cyano-phenyl)-5-[2-fluoro-6-(trifluoromethyl)-phenyl]-1-methyl-1H-pyrazole-3-carboxylic acid amide] | 50 to 70% |
| Cc1cncc(F)c1NC(=O)c1cc(-c2c(F)cccc2C(F)(F)F)n(C)n1 [Example 63, N-(3-Fluoro-5-methyl-pyridin-4-yl)-5-[2-fluoro-6-(trifluoromethyl)-phenyl]-1-methyl-1H-pyrazole-3-carboxylic acid amide] | > 70% |
| COc1ccc(Cl)cc1-c1cc(C(=O)Nc2ccncc2F)nn1C [Example 22, 5-(5-Chloro-2-methoxy-phenyl)-N-(3-fluoro-pyridin-4-yl)-1-methyl-1H-pyrazole-3-carboxylic acid amide] | 50 to 70% |
| Cc1cncc(F)c1NC(=O)c1cc(-c2c(F)cccc2F)n(C)n1 [Example 53, 5-(2,6-Difluoro-phenyl)-N-(3-fluoro-5-methyl-pyridin-4-yl)-1-methyl-1H-pyrazole-3-carboxylic acid amide] | 50 to 70% |
| CCn1nc(C(=O)Nc2c(F)cccc2F)cc1-c1cc(OC)ccc1OC [Example 37, N-(2,6-Difluoro-phenyl)-5-(2,5-dimethoxyphenyl)-1-ethyl-1H-pyrazole-3-carboxylic acid amide] | 50 to 70% |
| Cc1cccc(Cl)c1NC(=O)c1cc(-c2c(F)cccc2F)n(C)n1 [Example 52, N-(2-Chloro-6-methyl-phenyl)-5-(2,6-difluoro-phenyl)-1-methyl-1H-pyrazole-3-carboxylic acid amide] | 50 to 70% |
| Cc1ccc(Cl)cc1-c1cc(C(=O)Nc2ccncc2F)nn1C [Example 23, 5-(5-Chloro-2-methyl-phenyl)-N-(3-fluoro-pyridin-4-yl)-1-methyl-1H-pyrazole-3-carboxylic acid amide] | 50 to 70% |
| Cn1nc(C(=O)Nc2c(F)cccc2F)cc1-c1cc(C(F)(F)F)ccc1C#N [Example 38, 5-[2-Cyano-5-(trifluoromethyl)-phenyl]-N-(2,6-difluoro-phenyl)-1-methyl-1H-pyrazole-3-carboxylic acid amide] | 50 to 70% |
| COc1ccc(OC)c(-c2cc(C(=O)Nc3ccncc3F)nn2C)c1 [Example 19, 5-(2,5-Dimethoxyphenyl)-N-(3-fluoro-pyridin-4-yl)-1-methyl-1H-pyrazole-3-carboxylic acid amide] | > 70% |
| COc1ccc(OC)c(-c2cc(C(=O)Nc3ccccc3F)nn2C)c1 [Example 33, 5-(2,5-Dimethoxyphenyl)-N-(2-fluorophenyl)-1-methyl-1H-pyrazole-3-carboxylic acid amide] | > 70% |
| Cn1nc(C(=O)Nc2c(F)cccc2F)cc1-c1cc(F)ccc1F [Example 5, 5-(2,5-Difluoro-phenyl)-N-(2,6-difluoro-phenyl)-1-methyl-1H-pyrazole-3-carboxylic acid amide] | 50 to 70% |
| Cc1cccc(F)c1NC(=O)c1cc(-c2c(F)cccc2C(F)(F)F)n(C)n1 [Example 59, N-(2-Fluoro-6-methyl-phenyl)-5-[2-fluoro-6-(trifluoromethyl)-phenyl]-1-methyl-1H-pyrazole-3-carboxylic acid amide] | > 70% |
| COc1ccc(OC)c(-c2cc(C(=O)Nc3ccncc3C(F)(F)F)nn2C)c1 [Example 14, 5-(2,5-Dimethoxyphenyl)-1-methyl-N-[3-(trifluoromethyl)-pyridin-4-yl]-1H-pyrazole-3-carboxylic acid amide] | 50 to 70% |

Same assay, conditions: HEK293, read-out: % inhib.[@ 10 μM] FLIPR

| SMILES | inhibition at 10 µM |
| --- | --- |
| Cn1nc(C(=O)Nc2ccc(Cl)cc2Cl)cc1-c1c(F)cccc1C(F)(F)F [Example 57, N-(2,4-Dichlorophenyl)-5-[2-fluoro-6-(trifluoromethyl)-phenyl]-1-methyl-1H-pyrazole-3-carboxylic acid amide] | 50 to 70% |
